Test [1] concerns the target T1, TRPM3 V990M mutant (Homo sapiens, UniProt Q9HCF6, V1015M).
T1 construct: expressed in transfected cells; host or cells: HEK293T
T1 sequence (Q9HCF6 1-1325 isoform Q9HCF6-10 V990M): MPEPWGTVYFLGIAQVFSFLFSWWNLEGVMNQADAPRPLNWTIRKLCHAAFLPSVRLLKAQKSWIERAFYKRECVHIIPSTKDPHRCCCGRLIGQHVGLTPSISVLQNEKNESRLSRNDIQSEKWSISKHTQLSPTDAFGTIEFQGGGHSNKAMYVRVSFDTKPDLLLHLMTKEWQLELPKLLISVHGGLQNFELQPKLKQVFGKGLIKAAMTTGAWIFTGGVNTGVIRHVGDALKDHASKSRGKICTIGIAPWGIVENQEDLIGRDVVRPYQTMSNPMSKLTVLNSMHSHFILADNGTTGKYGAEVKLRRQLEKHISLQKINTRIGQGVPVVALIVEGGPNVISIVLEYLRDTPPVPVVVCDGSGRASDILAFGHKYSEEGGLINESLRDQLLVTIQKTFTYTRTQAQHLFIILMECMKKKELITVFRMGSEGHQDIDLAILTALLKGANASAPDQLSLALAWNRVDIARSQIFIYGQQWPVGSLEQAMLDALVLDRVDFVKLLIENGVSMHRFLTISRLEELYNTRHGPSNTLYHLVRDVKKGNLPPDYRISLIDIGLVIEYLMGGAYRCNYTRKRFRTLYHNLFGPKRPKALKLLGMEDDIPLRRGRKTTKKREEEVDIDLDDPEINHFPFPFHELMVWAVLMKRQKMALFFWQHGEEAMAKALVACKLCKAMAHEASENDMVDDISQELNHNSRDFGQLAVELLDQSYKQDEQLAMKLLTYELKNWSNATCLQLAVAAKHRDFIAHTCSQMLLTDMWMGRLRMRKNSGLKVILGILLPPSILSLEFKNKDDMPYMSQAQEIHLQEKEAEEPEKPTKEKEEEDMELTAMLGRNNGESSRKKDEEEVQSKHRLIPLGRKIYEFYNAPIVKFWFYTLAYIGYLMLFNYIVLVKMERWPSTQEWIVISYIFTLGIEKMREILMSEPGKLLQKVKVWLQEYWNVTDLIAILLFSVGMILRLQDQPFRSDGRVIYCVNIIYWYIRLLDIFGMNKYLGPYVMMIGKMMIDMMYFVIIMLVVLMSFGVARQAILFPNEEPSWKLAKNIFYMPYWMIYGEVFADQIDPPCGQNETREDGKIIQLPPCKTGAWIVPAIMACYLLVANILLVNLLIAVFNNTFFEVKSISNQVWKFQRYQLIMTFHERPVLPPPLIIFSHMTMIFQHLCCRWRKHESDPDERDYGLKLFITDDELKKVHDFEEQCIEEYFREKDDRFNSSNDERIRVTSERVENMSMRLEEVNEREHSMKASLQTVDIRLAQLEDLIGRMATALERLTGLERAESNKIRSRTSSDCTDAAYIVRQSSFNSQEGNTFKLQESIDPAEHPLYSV
Description: Whole-cell patch clamp, HEK293T cells expressing V990M hTRPM3. It is filed as cell-based. How it is done:
(§1) HEK293T cells ([Graham et al., 1977]) were cultured as described previously ([Vriens et al., 2007]) and used up in passage number 14. HEK293T cells were tested for the lack of mycoplasma and transiently transfected with 2 µg of DNA using TransIT transfection reagent (Mirus) 36–48 hr before the measurements. In case of co-cultures a ratio of 1:1 between hTRPM3-YFP WT and mutants-YFP DNA was used.
(§2) All mutants were obtained by the standard PCR overlap extension method using hTRPM3 directly linked to YFP from pCAGGS/IRES-GFP vector ([Vriens et al., 2007]). Accuracy of all mutant sequences was verified by sequencing of the entire DNA constructs.
Standard whole-cell patch-clamp recordings were performed with an EPC-10 amplifier and the PatchMasterPro Software (HEKA Elektronik, Lambrecht, Germany). Current measurements were performed at a sampling rate of 20 kHz and currents were digitally filtered at 2.9 kHz. In all measurements, 70% of the series resistance was compensated. The standard internal solution contained (in mM): 100 CsAsp, 45 CsCl, 10 EGTA, 10 HEPES, 1 MgCl2 (pH 7.2 with CsOH) or 140 potassium gluconate, 5 EGTA, 1 MgCl2, 10 HEPES and 2 NaATP (pH 7.3 with CsOH) for the measurements of Gβγ mediated inhibition and the standard extracellular solution contained (in mM): 150 NaCl, 1 MgCl2, 10 HEPES (pH 7.4 with NaOH). The standard patch pipette resistance was between 2 MΩ and 4 MΩ when filled with pipette solution. In experiments allowing Ca^2+-dependent desensitization of TRPM3, Mg^2+ was replaced by Ca^2+ in the extracellular solution, and Cs^+ was replaced by Na^+ in the pipette solution. […] The chemical ligands were dissolved in bath solution from a stock diluted in DMSO.

In test [2] the target is T1, TRPM3 V990M mutant. The experiment in a line: Fura-2-based calcium imaging, HEK293T cells transfected with V990M hTRPM3. It is filed as cell-based. How it is done: as §1, §2
Changes in intracellular calcium concentration were monitored using ratiometric Fura-2-based fluorimetry. Cells were loaded with 2 µM Fura-2-acetoxymethyl ester (Alexis Biochemicals) for 30 min at 37°C. Fluorescence was measured during alternating illumination at 340 and 380 nm using Eclipse Ti (Nikon) fluorescence microscopy system, and absolute calcium concentration was calculated from the ratio of the fluorescence signals at these two wavelengths (R = F340/F380) as [Ca^2+]=Km × (R-Rmin)/(Rmax-R), where Km, Rmin and Rmax were estimated from in vitro calibration experiments with known calcium concentrations. The bath solution contained (in mM) 138 NaCl, 5.4 KCl, 2 CaCl2, 2 MgCl2, 10 glucose, and 10 HEPES, pH 7.4. […]

In the case of `Clc1ccccc1C(c1ccccc1)(c1ccccc1)n1ccnc1` [Clt, clotrimazole], the “Activation of whole-cell currents in the absence of PS” value in test [1] (Clt 10 µM) is reported as “induced robust currents”.

Regarding `CCC1(c2ccccc2)C(=O)NCNC1=O` [primidone], in test [2] (primidone 100 µM, isosakuranetin 50 µM, did not fully return to WT level), the “Effect on basal [Ca2+]i” value was “reduced [Ca^2+]i”. The “Block of PS-activated currents” value in test [1] (primidone 25 µM, PS 40 µM, ±80 mV, cells co-expressing µ-opioid receptor) is ~ 50%.

As to pregnenolone sulfate [PS], the “PS concentration giving robust calcium responses (as low as)” value in test [2] is listed as 100 nM.

Source of the values: PMC7253177, “Gain of channel function and modified gating properties in TRPM3 mutants causing intellectual disability and epilepsy” (eLife, 2020).
